The source of these data is EPA's ToxValDB 9.5 (doi:10.2903/j.efsa.2017.4887).

≈ marks a conversion by molar mass, not a printed value.

The test system of one series is Folsomia candida. The settings on record: chronic/long-term; duration: 28 days; reproduction.
For another series, the system named is Pleurozium sp. The settings on record: acute; duration: 72 hours; growth.
For a further series, the system named is Argyrosomus sp. The settings on record: acute; duration: 96 hours; mortality.
The subject of a further series is Colinus virginianus. The following applies: acute; oral; mortality.
The subject of the next series is Cyprinodon variegatus. The following applies: chronic/long-term; duration: 100 days; reproduction.
For another series, the system named is Bibionidae. The following applies: chronic/long-term; duration: 28 days; other.
The next series deals with Hypoaspis aculeifer. The settings on record: chronic/long-term; reproduction.
The subject of a further series is Apis mellifera. The following applies: acute, mortality.
For a further series, the system named is Anas platyrhynchos. The following applies: reproductive.
For another series, the system named is Aphidius rhopalosiphi. Put plainly: LR50; higher = less toxic. The following applies: not reported; mortality.
The next series concerns Oncorhynchus mykiss. The settings on record: acute; duration: 96 hours; mortality.

In the case of `O=C(O)[C@H]1CO[C@@](Cn2cncn2)(c2ccc(Cl)cc2Cl)O1` (racemic), the figures for the NOEC with Folsomia candida and with Pleurozium sp. were 1000 mg/kg and 112 mg/L, respectively.
For orientation: LC50 means the concentration that kills 50% of the test population. By NOAEL is commonly meant the highest tested level that showed no adverse finding. Regarding `CCCC1COC(Cn2cncn2)(c2ccc(Cl)cc2Cl)O1` (centres undefined) [Propiconazole], the LC50 turned out to be 2.6 mg/L (≈ 7.6 µM) with Argyrosomus sp. and 0.51 mg/L (≈ 1.49 µM) in the series with Neomysis kadiakensis (acute, duration: 96 hours, mortality). Further, the LD50 is not below 2510 mg/kg-day with Colinus virginianus; 550 mg/kg-day in the series with Rattus norvegicus (acute, oral, mortality); 46.3 µg/piece with Apis mellifera (dermal); 203 µg/piece with Apis mellifera (oral, unspecified). Besides, the NOEC in the series on Cyprinodon variegatus turned out to be 0.068 mg/L; with Bibionidae it was 4 mg/L; in the series with Hypoaspis aculeifer, 22.4 mg/kg; with Neomysis kadiakensis (chronic/long-term, duration: 28 days, reproduction) it was 0.114 mg/L. Besides, the NOAEL worked out at 3.6 mg/kg-day in the series with Rattus norvegicus (chronic, duration: 2 years, organ weight); 30 mg/kg-day in the series on Rattus norvegicus (developmental, development); 8.4 mg/kg-day in the series on Rattus norvegicus (reproduction developmental, histopathology: nonneoplastic); 25.5 mg/kg-day with Anas platyrhynchos. Besides, in the series on Aphidius rhopalosiphi, the LR50 is more than 250 g/ha.
For the compound `O=C(O)[C@@H]1CO[C@@](Cn2cncn2)(c2ccc(Cl)cc2Cl)O1` (racemic), in the series with Folsomia candida, the NOEC stood at 1000 mg/kg. The compound further showed an LC50 with Oncorhynchus mykiss of more than 100 mg/L.
